Reference: patent publication US10457654B2 (GENENTECH, INC., priority 2017, dated 2019)
Structures can show the parent of a compound that is named as a salt.

Experiments:
[1] = target: T1, hNav1.7 (Homo sapiens (Human), UniProt Q15858); test: Tritiated compound binding to membranes from cells expressing hNav1.7 and the β1 subunit, competitive binding (LBA, Ex. 243A); conditions: 100 pM [3H]compound, 18 h, room temperature
Target sequence in this assay (Q15858 whole entry, looked up): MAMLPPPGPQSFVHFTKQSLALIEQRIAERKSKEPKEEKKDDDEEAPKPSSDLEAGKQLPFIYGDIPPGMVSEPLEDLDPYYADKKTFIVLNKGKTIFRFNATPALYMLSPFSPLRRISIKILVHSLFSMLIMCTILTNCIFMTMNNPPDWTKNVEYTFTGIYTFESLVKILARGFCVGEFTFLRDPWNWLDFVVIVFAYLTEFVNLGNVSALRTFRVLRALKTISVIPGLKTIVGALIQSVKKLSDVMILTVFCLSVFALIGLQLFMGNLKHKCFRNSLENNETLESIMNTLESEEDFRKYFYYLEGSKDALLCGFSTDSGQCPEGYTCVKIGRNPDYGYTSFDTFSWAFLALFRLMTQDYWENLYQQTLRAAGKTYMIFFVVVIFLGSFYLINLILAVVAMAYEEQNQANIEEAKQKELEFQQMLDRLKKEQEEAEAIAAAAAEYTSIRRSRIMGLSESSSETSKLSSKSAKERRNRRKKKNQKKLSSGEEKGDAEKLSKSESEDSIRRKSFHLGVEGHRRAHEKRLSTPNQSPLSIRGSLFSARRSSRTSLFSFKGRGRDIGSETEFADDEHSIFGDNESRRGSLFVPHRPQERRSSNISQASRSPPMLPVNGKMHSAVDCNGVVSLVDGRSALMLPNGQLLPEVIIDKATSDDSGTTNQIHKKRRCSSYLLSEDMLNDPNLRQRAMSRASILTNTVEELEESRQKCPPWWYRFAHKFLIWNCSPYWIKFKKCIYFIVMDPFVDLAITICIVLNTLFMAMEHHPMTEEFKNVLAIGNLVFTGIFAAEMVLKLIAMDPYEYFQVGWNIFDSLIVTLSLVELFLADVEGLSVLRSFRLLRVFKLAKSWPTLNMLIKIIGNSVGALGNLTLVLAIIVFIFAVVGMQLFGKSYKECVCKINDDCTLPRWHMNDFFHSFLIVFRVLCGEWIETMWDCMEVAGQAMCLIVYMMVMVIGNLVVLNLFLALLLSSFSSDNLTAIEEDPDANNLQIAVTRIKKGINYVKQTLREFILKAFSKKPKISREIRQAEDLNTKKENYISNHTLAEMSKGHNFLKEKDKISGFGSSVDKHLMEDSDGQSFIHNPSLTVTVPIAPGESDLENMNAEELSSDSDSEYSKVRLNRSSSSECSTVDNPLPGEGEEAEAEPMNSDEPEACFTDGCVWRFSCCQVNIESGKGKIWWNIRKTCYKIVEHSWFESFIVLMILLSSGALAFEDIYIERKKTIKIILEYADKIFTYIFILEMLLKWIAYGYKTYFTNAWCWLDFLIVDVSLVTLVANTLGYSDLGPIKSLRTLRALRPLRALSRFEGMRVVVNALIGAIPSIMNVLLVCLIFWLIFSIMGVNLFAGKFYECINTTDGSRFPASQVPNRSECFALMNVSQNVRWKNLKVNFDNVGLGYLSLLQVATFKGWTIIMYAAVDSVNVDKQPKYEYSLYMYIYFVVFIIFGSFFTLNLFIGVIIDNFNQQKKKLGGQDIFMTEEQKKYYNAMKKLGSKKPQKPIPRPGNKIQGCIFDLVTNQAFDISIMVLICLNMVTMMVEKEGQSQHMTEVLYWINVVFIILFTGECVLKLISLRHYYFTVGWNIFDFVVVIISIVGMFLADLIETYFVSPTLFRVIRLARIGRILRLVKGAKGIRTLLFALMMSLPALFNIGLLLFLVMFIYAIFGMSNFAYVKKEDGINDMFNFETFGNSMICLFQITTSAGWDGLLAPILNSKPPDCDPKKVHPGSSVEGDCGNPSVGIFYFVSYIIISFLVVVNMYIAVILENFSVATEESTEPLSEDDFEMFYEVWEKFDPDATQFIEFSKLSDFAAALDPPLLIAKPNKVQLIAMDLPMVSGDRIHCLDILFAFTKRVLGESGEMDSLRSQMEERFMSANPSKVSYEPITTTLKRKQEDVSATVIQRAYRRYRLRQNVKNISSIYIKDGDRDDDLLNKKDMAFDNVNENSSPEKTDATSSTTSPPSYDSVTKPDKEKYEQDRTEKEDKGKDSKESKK
Target sequence in this assay (Q07699 whole entry partner, looked up): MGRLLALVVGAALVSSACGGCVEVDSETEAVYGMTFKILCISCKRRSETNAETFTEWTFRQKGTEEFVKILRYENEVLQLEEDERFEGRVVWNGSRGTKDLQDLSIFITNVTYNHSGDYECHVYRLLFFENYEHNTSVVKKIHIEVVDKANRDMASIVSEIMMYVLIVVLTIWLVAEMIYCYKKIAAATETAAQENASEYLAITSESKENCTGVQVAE

[2] = target: T1, hNav1.7; test: Patch voltage clamp electrophysiology assay (EP), Syncropatch 384PE, CHO cells expressing Nav1.7; assay type: cell-based; conditions: holding potential -50 mV; […] compound incubation; read-out: EP_SP hNav1.7 (Ex. 243B) IC50
Procedure, shortened: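 Automated whole-cell patch clamp on CHO cells stably expressing human Nav1.7, CsCl/EGTA internal and NMDG/80 mM Na+ external (pH 7.4). From −50 mV holding, −10 mV step, 20 ms recovery at −150 mV, then second −10 mV pulse where block is measured; inhibition after 7.5 min compound incubation.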
Target sequence in this assay (Q15858 other isoform, or with tags, fused parts or gaps): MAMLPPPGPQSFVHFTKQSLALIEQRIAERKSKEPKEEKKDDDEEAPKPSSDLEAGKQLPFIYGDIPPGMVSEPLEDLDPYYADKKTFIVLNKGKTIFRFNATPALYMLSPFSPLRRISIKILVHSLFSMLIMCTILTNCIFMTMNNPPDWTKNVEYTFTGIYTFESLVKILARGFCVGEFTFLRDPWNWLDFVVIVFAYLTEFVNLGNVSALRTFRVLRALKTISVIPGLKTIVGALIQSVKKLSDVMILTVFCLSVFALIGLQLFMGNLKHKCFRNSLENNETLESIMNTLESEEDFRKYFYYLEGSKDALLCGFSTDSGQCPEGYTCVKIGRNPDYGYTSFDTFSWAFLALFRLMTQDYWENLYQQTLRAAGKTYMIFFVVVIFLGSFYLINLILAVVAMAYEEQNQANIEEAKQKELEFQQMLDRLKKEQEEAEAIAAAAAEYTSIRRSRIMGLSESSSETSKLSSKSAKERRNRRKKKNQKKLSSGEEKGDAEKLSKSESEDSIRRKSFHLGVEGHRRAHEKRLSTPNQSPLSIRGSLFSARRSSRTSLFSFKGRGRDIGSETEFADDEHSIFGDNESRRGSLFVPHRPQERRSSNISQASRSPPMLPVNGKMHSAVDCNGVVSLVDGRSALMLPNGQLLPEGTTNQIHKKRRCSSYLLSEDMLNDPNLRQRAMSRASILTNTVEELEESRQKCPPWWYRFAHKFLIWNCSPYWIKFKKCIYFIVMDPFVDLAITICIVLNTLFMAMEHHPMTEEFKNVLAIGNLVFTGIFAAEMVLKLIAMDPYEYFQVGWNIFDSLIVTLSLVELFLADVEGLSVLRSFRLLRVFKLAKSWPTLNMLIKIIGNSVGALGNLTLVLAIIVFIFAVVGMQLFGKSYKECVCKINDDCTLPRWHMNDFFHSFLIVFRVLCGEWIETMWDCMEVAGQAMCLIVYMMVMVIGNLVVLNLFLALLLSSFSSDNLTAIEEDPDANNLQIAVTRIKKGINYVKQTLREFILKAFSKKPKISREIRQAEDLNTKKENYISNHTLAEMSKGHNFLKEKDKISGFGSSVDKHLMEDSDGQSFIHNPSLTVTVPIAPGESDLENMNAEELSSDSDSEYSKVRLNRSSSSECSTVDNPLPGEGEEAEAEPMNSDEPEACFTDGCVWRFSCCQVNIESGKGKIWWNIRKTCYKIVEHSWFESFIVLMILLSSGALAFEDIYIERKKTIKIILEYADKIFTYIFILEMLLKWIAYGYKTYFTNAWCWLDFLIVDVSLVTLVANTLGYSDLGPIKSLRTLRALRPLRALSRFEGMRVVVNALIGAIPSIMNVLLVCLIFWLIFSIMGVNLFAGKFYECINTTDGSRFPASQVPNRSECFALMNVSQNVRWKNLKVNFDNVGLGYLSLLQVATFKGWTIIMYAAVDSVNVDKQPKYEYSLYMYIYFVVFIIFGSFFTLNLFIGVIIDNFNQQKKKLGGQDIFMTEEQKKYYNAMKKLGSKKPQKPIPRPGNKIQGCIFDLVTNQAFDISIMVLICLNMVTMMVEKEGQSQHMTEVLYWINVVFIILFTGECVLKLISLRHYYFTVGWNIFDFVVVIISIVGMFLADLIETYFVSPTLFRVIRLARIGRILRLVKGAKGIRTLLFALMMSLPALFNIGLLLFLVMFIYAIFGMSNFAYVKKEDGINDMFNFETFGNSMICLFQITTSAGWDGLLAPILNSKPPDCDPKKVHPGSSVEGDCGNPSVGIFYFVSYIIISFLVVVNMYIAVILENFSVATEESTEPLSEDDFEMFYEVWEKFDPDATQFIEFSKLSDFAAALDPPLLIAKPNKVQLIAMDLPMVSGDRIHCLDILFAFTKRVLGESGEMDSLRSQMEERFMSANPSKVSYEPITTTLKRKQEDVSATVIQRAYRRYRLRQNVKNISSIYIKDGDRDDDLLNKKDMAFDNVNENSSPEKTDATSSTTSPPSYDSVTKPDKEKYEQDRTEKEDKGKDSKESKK

[3] = read-out: Nav1.7 LBA (Ex. 243A) IC50
[4] = read-out: Nav1.7 (LBA) (Ex. 243A)

| SMILES | IC50 [1, 3] [nM] | IC50 [2] [nM] | IC50 [1, 4] [nM] |
| --- | --- | --- | --- |
| CN1CC(N(C)[C@H]2CCCC[C@@H]2Nc2cc(F)c(S(=O)(=O)Nc3cccc(F)n3)cc2Cl)C1 [Example 63, 5-chloro-2-fluoro-N-(6-fluoropyridin-2-yl)-4-(((1S,2S)-2-(methyl(1-methylazetidin-3-yl)amino)cyclohexyl)amino)benzenesulfonamide] | 9.81 | 5.35 | – |
| CN1CC(N(C)[C@H]2CCCC[C@@H]2Nc2cc(F)c(S(=O)(=O)Nc3nccs3)cc2Cl)C1 [Example 41, 5-chloro-2-fluoro-4-(((1S,2S)-2-(methyl(1-methylazetidin-3-yl)amino)cyclohexyl)amino)-N-(thiazol-2-yl)benzenesulfonamide formate] | 4.51 | 3.4 | – |
| COCCN(C)[C@H]1CCCC[C@@H]1Nc1cc(F)c(S(=O)(=O)Nc2nccs2)cc1Cl [Example 32, 5-chloro-2-fluoro-4-(((1S,2S)-2-((2-methoxyethyl)(methyl)amino)cyclohexyl)amino)-N-(thiazol-2-yl)benzenesulfonamide formate] | 38.2 | 24.6 | – |
| O=S(=O)(Nc1nccs1)c1cc(Cl)c(N[C@H]2CCCC[C@@H]2N2CCCC2)cc1F [Example 30, 5-chloro-2-fluoro-4-(((1S,2S)-2-(pyrrolidin-1-yl)cyclohexyl)amino)-N-(thiazol-2-yl)benzenesulfonamide] | 9.73 | 9.77 | – |
| O=S(=O)(Nc1ccncn1)c1cc(Cl)c(N[C@H]2CCCC[C@@H]2N2CCC(O)C2)cc1F (stereo partly drawn) [Example 61, 5-chloro-2-fluoro-4-(((1S,2S)-2-(3-hydroxypyrrolidin-1-yl)cyclohexyl)amino)-N-(pyrimidin-4-yl)benzenesulfonamide] | 558 | – | – |
| CN(C)[C@H]1CCCC[C@@H]1Nc1cc(F)c(S(=O)(=O)Nc2ncc(F)s2)cc1Cl [Example 49, 5-chloro-4-(((1S,2S)-2-(dimethylamino)cyclohexyl)amino)-2-fluoro-N-(5-fluorothiazol-2-yl)benzenesulfonamide] | 42.1 | – | – |
| CN(C)[C@H]1CCC[C@@H]1Oc1cc(F)c(S(=O)(=O)Nc2nccs2)cc1Cl [Example 9, 5-chloro-4-(((1S,2S)-2-(dimethylamino)cyclopentyl)oxy)-2-fluoro-N-(thiazol-2-yl)benzenesulfonamide] | – | – | 3000 |
| CN(C)[C@H]1CCCC[C@@H]1Oc1cc(F)c(S(=O)(=O)Nc2nccs2)cc1C(F)(F)F [Example 78, 4-(((1S,2S)-2-(dimethylamino)cyclohexyl)oxy)-2-fluoro-N-(thiazol-2-yl)-5-(trifluoromethyl)benzenesulfonamide formate] | 95.6 | – | – |
| CN(CC1CC1)[C@H]1CCCC[C@@H]1Nc1cc(F)c(S(=O)(=O)Nc2nccs2)cc1Cl [Example 31, 5-chloro-4-(((1S,2S)-2-((cyclopropylmethyl)(methyl)amino)cyclohexyl)amino)-2-fluoro-N-(thiazol-2-yl)benzenesulfonamide] | 163 | – | – |
| CN(C)[C@H]1CCCC[C@@H]1Nc1cc(F)c(S(=O)(=O)Nc2nccs2)cc1C1CCC1 [Example 91, 5-cyclobutyl-4-(((1S,2S)-2-(dimethylamino)cyclohexyl)amino)-2-fluoro-N-(thiazol-2-yl)benzenesulfonamide] | 13 | – | – |
| CC1CCCN1[C@H]1CCCC[C@@H]1Nc1cc(F)c(S(=O)(=O)Nc2nccs2)cc1Cl (stereo partly drawn) [Example 44, 5-chloro-2-fluoro-4-(((1 S,2S)-2-(2-methylpyrrolidin-1-yl)cyclohexyl)amino)-N-(thiazol-2-yl)benzenesulfonamide] | 74.4 | – | – |
| CCN[C@H]1CCCC[C@@H]1Nc1cc(F)c(S(=O)(=O)Nc2nccs2)cc1C1CC1 [Example 64, 5-cyclopropyl-4-(((1S,2S)-2-(ethylamino)cyclohexyl)amino)-2-fluoro-N-(thiazol-2-yl)benzenesulfonamide formate] | 11.6 | – | – |
| O=S(=O)(Nc1nccs1)c1cc(Cl)c(N[C@H]2CCCC[C@@H]2NCc2ccccc2)cc1F [Example 5, 4-(((1S,2S)-2-(benzylamino)cyclohexyl)amino)-5-chloro-2-fluoro-N-(thiazol-2-yl)benzenesulfonamide 2,2,2-trifluoroacetate] | – | – | 426 |
| CN(C)[C@@H]1CC[C@@H](c2cccc(C(F)(F)F)c2)C[C@H]1Nc1cc(F)c(S(=O)(=O)Nc2nccs2)cc1Cl [Example 93, 5-chloro-4-(((1R,2R,5R)-2-(dimethylamino)-5-(3-(trifluoromethyl)phenyl)cyclohexyl)amino)-2-fluoro-N-(thiazol-2-yl)benzenesulfonamide] | 64.7 | – | – |
| CN(C[C@@H](O)C(F)(F)F)[C@H]1CCCC[C@@H]1Nc1cc(F)c(S(=O)(=O)Nc2nccs2)cc1Cl [Example 95, 5-chloro-2-fluoro-4-(((1S,2S)-2-(methyl((R)-3,3,3-trifluoro-2-hydroxypropyl)amino)cyclohexyl)amino)-N-(thiazol-2-yl)benzenesulfonamide] | 24.3 | – | – |
| CN[C@H]1CCCC[C@@H]1Nc1cc(F)c(S(=O)(=O)Nc2nccs2)cc1C1CC1 [Example 51, 5-cyclopropyl-2-fluoro-4-(((1S,2S)-2-(methylamino)cyclohexyl)amino)-N-(thiazol-2-yl)benzenesulfonamide formate] | 75.6 | – | – |

| SMILES | IC50 [1, 3] [nM] | IC50 [2] [nM] | IC50 [1, 4] [nM] |
| --- | --- | --- | --- |
| O=S(=O)(Nc1nccs1)c1cc(Cl)c(N[C@H]2CCCC[C@@H]2NC2CCC2)cc1F [Example 16, 5-chloro-4-[[(1S,2S)-2-(cyclobutylamino)cyclohexyl]amino]-2-fluoro-N-thiazol-2-yl-benzenesulfonamide] | – | – | 325 |
| O=S(=O)(Nc1ccncn1)c1cc(Cl)c(N[C@H]2CCCC[C@@H]2N2CCCC2)cc1F [Example 60, 5-chloro-2-fluoro-N-(pyrimidin-4-yl)-4-(((1S,2S)-2-(pyrrolidin-1-yl)cyclohexyl)amino)benzenesulfonamide] | 198 | – | – |
| O=S(=O)(Nc1nccs1)c1cc(Cl)c(N[C@H]2CCCC[C@@H]2N2CC[C@@H](O)C2)cc1F [Example 68, 5-chloro-2-fluoro-4-(((1S,2S)-2-((R)-3-hydroxypyrrolidin-1-yl)cyclohexyl)amino)-N-(thiazol-2-yl)benzenesulfonamide] | 16.6 | – | – |
| CN(CCO)[C@H]1CCCC[C@@H]1Nc1cc(F)c(S(=O)(=O)Nc2ccncn2)cc1Cl [Example 89, 5-chloro-2-fluoro-4-(((1S,2S)-2-((2-hydroxyethyl)(methyl)amino)cyclohexyl)amino)-N-(pyrimidin-4-yl)benzenesulfonamide formate] | 59.9 | – | – |
| CN[C@H]1CCCC[C@@H]1N(C)c1cc(F)c(S(=O)(=O)Nc2nccs2)cc1Cl [Example 20, 5-chloro-2-fluoro-4-(methyl((1S,2S)-2-(methylamino)cyclohexyl)amino)-N-(thiazol-2-yl)benzenesulfonamide] | – | – | 211 |
| CN(CCF)[C@H]1CCCC[C@@H]1Nc1cc(F)c(S(=O)(=O)Nc2nccs2)cc1Cl [Example 37, 5-chloro-2-fluoro-4-(((1S,2S)-2-((2-fluoroethyl)(methyl)amino)cyclohexyl)amino)-N-(thiazol-2-yl)benzenesulfonamide formate] | 2.76 | – | – |
| Cc1csc(NS(=O)(=O)c2cc(Cl)c(N[C@H]3CCCC[C@@H]3N3CCCC3)cc2F)n1 [Example 92, 5-chloro-2-fluoro-N-(4-methylthiazol-2-yl)-4-(((1S,2S)-2-(pyrrolidin-1-yl)cyclohexyl)amino)benzenesulfonamide formate] | 118 | – | – |
| CN(C)[C@@H]1CCCC[C@H]1Oc1cc(F)c(S(=O)(=O)Nc2nccs2)cc1C1CC1 [Example 25, 5-cyclopropyl-4-[(1R,2R)-2-(dimethylamino)cyclohexoxy]-2-fluoro-N-thiazol-2-yl-benzenesulfonamide] | – | – | 7420 |
| CN(C)[C@H]1CCCC[C@@H]1Nc1cc(F)c(S(=O)(=O)Nc2cccc(Cl)n2)cc1Cl [Example 85, 5-chloro-N-(6-chloropyridin-2-yl)-4-(((1S,2S)-2-(dimethylamino)cyclohexyl)amino)-2-fluorobenzenesulfonamide] | 252 | – | – |
| O=S(=O)(Nc1nccs1)c1cc(Cl)c(N[C@H]2CCCC[C@@H]2N2CC[C@H](O)C2)cc1F [Example 67, 5-chloro-2-fluoro-4-(((1S,2S)-2-((S)-3-hydroxypyrrolidin-1-yl)cyclohexyl)amino)-N-(thiazol-2-yl)benzenesulfonamide] | 17.3 | – | – |
| O=S(=O)(Nc1cccc(F)n1)c1cc(Cl)c(N[C@@H]2CCCC[C@H]2N2CCCC2)cc1F [Example 98, 5-chloro-2-fluoro-N-(6-fluoropyridin-2-yl)-4-(((1R,2R)-2-(pyrrolidin-1-yl)cyclohexyl)amino)benzenesulfonamide] | 3000 | – | – |
| O=S(=O)(Nc1cccc(F)n1)c1cc(Cl)c(N[C@H]2CCCC[C@@H]2N2CCC(O)C2)cc1F (stereo partly drawn) [Example 62, 5-chloro-2-fluoro-N-(6-fluoropyridin-2-yl)-4-(((1S,2S)-2-(3-hydroxypyrrolidin-1-yl)cyclohexyl)amino)benzenesulfonamide] | 57.8 | – | – |
| CN(C)[C@H]1CCCC[C@@H]1Oc1cc(F)c(S(=O)(=O)Nc2nccs2)cc1C1CC1 [Example 24, 5-cyclopropyl-4-[(1S,2S)-2-(dimethylamino)cyclohexoxy]-2-fluoro-N-thiazol-2-yl-benzenesulfonamide] | – | – | 49.9 |
| CN(C)[C@@H]1CC[C@H](c2cccc(C(F)(F)F)c2)C[C@H]1Nc1cc(F)c(S(=O)(=O)Nc2nccs2)cc1Cl [Example 103, 5-chloro-4-(((1R,2R,5S)-2-(dimethylamino)-5-(3-(trifluoromethyl)phenyl)cyclohexyl)amino)-2-fluoro-N-(thiazol-2-yl)benzenesulfonamide] | 32.2 | – | – |
| CN(C)[C@H]1CCCC[C@@H]1Nc1cc(F)c(S(=O)(=O)Nc2nccs2)cc1C1CC1 [Example 15, 5-cyclopropyl-4-[[(1S,2S)-2-(dimethylamino)cyclohexyl]amino]-2-fluoro-N-thiazol-2-yl-benzenesulfonamide] | – | – | 26.9 |
